In PubChem BioAssay (NCI):
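96-well plates; 48 h exposure; 5 concentrations. Endpoints by linear interpolation between flanking doses. Not reached: highest tested concentration assigned. TGI is the concentration that stops growth completely.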

Legend:
Assay in all cases: growth of human tumour cells (NCI), 48 h
[1] = test system: MDA-MB-231 breast
[2] = test system: NCI-H23 lung
[3] = test system: SNB-19 CNS
[4] = test system: OVCAR-4 ovarian
[5] = test system: IGROV1 ovarian
[6] = test system: COLO 205 colon
[7] = test system: CAKI-1 renal
[8] = test system: T-47D breast
[9] = test system: HS 578T breast

SMILES | TGI [1] [µM] | TGI [2] [µM] | TGI [3] [µM] | TGI [4] [µM] | TGI [5] [µM] | TGI [6] [µM] | TGI [7] [µM] | TGI [8] [µM] | TGI [9] [µM]
c1ccc(C2(c3cc4ccccc4[nH]3)OCCO2)cc1 | > 100 | > 100 | > 100 | > 100 | > 100 | 65.2 | > 100 | > 100 | –
O=C1c2ccccc2C(=O)c2c1c1cc(O)ccc1n2Cc1ccc(Cl)cc1Cl | 17.5 | 19.9 | 34.7 | 4.27 | 21.2 | 29.8 | 14.4 | – | > 100
Cc1[nH]c(=O)nc2c1C(=O)N(C(C)C)C(NC(C)C)S2 (configuration not stated) | > 100 | > 100 | > 100 | > 100 | > 100 | > 100 | > 100 | > 100 | –
N#Cc1c(C#N)c(-c2ccco2)n(/N=C/c2ccco2)c1N | 36.3 | > 100 | 67.5 | > 100 | > 100 | > 100 | > 100 | > 100 | 71.2
C=CCn1c(=O)c(-c2ccccc2)c(O)c2ccccc21 | > 100 | > 100 | > 100 | > 100 | > 100 | > 100 | > 100 | – | > 100
Cc1cccc2ns[s+]c12 | – | > 100 | > 100 | > 100 | > 100 | > 100 | > 100 | – | –
COC[C@@H](N=Cc1ccc(OC)cc1)C(C)C | – | > 100 | – | > 100 | > 100 | > 100 | > 100 | > 100 | > 100
COc1cc(NS(C)(=O)=O)ccc1N1Cc2cnc3ccc4[nH]ccc1c4c23 | 92.4 | > 100 | > 100 | > 100 | > 100 | > 100 | > 100 | 83.6 | > 100
CC(C)(C)OC(=O)NCCNC(=O)OCc1ccccc1 | – | > 100 | > 100 | – | > 100 | > 100 | > 100 | – | > 100
Clc1ccc(CCn2ccc3ccccc32)c(Cl)c1 | > 100 | > 100 | > 100 | > 100 | > 100 | > 100 | > 100 | – | > 100
OB1OCc2ccccc21 | > 100 | > 100 | > 100 | 92.8 | > 100 | > 100 | > 100 | > 100 | > 100
Fc1ccccc1N=c1oc2ccc(Br)cc2cc1-c1nc2ccccc2[nH]1 | 25.8 | 29.8 | 21.9 | > 37.3 | > 42.1 | > 100 | 35.8 | > 100 | 13.4
O=C1c2c(ccc3c2CCCC3)CC12Cc1ccccc1C2 | 52.7 | > 96.2 | > 100 | > 100 | > 100 | 65.2 | > 77.7 | > 100 | > 100
COc1nc(NC2OCC(OC(C)=O)C(OC(C)=O)C2OC(C)=O)c(N=C(C)C(C)=O)c(=O)n1C (configuration not stated) | – | > 100 | > 100 | > 100 | > 100 | > 100 | > 100 | – | –
CC(C)(Oc1ccc(C2C[C@H]2Cl)cc1)C(=O)O (some centres not stated) | > 100 | – | > 100 | > 100 | > 100 | > 100 | > 100 | > 100 | > 100
CC(C)Oc1c(O)c2c3c(oc(=O)n3C=CC2c2ccccc2F)c1OC(C)C (configuration not stated) | > 100 | > 100 | > 100 | > 100 | > 100 | 36.6 | > 100 | – | > 100
O=S(=O)(CC#CCS(=O)(=O)c1ccccc1)c1ccccc1 | 26.5 | 12.2 | 32.9 | 3.71 | 2.94 | 5.19 | 3.42 | – | > 36.5
O=C(CSCC(=O)N/N=C\c1cc(Br)cc(Br)c1O)N/N=C\c1cc(Br)cc(Br)c1O | – | > 100 | > 100 | > 100 | 66.2 | > 100 | 73 | > 100 | > 100
COc1cccc2c(NNc3ccc(Cl)cc3)c3ccc([N+](=O)[O-])cc3nc12 | 27.5 | 33.4 | 33.2 | 30.9 | – | 85 | 15.2 | 61.8 | 50.6
C[Si](C)(C)C1=C2C(=O)c3ccccc3C(=O)C2=C([Si](C)(C)C)[C@@H]2CCCC[C@H]12 | > 100 | > 100 | > 100 | > 100 | > 100 | > 100 | > 100 | > 100 | –
N#C/C(=C/NC(=S)Nc1ccc(S(N)(=O)=O)cc1)C(N)=O | – | > 100 | – | > 100 | > 100 | > 100 | > 100 | – | > 100
Cc1c2cccc-2c(N(C)C)cc2c1[nH]c1ccccc12 | 23.8 | 32.3 | 22.1 | – | 4.9 | 3.42 | 32.7 | 5.09 | 13.8
CC1=C2CC3=C(C)C(=O)O[C@H]3C[C@@H](C)[C@@H]2CC1 | > 100 | > 100 | > 100 | > 100 | > 100 | > 100 | > 100 | – | > 100
CC(=S)NC1C(Oc2ccc3c(C)cc(=O)oc3c2)OC(CO)C(O)C1O (configuration not stated) | > 100 | – | > 100 | > 100 | > 100 | – | > 100 | > 100 | > 100
O=c1n(CCO)nc2n1CCCN2 | > 100 | > 100 | > 100 | > 100 | > 100 | > 100 | – | > 100 | > 100
C=CC(C)(C)c1cc([C@@H]2COc3cc(O)ccc3C2=O)c(O)c(OC)c1OC | 37.9 | 27.2 | 30.6 | 19.7 | – | 45 | – | 35.2 | 72.2
